The values that follow come from patent US20080200490A1, “Alpha-(Aryl-or Heteroaryl-Methyl)-Beta-Piperidino Propanamide Compounds as Orl-1-Receptor Antagonists” (PFIZER INC., priority 2005, published 2008).

Counter-ions that a name gives are not always drawn. Like-named read-outs stand apart in the source and are kept apart here.

For one series, the target named is T1, human ORL1 receptor (Homo sapiens, UniProt P41146).
T1 construct: purchased PerkinElmer; host or cells: HEK-293 cells transfected with human ORL1 receptor (membranes)
T1 sequence (P41146 whole entry): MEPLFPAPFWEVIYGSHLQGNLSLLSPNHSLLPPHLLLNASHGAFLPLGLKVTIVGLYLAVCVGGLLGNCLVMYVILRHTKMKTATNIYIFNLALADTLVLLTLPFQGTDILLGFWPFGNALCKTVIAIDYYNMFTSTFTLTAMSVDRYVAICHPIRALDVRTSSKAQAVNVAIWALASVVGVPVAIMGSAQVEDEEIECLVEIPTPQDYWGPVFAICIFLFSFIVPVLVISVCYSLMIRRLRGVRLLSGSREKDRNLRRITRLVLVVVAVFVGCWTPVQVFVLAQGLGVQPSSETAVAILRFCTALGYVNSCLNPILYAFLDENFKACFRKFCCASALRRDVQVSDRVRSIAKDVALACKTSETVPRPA
Description: ORL1-Receptor Binding Assay. The settings on record: [3H]nociceptin, human ORL1 receptor transfected HEK-293 cell membranes. How it is done: The human ORL1 receptor transfected HEK-293 cell membranes (PerkinElmer) were incubated for 45 min at room temperature with 0.4 nM [^3H]nociceptin, 1.0 mg of wheat germ agglutinin(WGA)-coated SPA beads and various concentrations of test compounds in a final volume of 200 μL of 50 mM HEPES buffer pH 7.4 containing 10 mM MgCl2 and 1 mM EDTA. Non-specific binding (NSB) was determined by the addition of 1 μM unlabeled nociceptin. After the reaction, the assay plate was centrifuged at 1,000 rpm for 1 min and then the radioactivity was measured by WALLAC 1450 MicroBeta Trilux.
The compounds of the examples were tested in the ORL1 Receptor Binding assay.

A further series has as its target T2, HERG (Homo sapiens, UniProt Q12809).
T2 construct: expressed in transfected cells; host or cells: HEK-293
The series is classed as binding. How it is done:
Cell paste of HEK-293 cells expressing the HERG product was suspended in 10-fold volume of 50 mM Tris buffer adjusted at pH 7.5 at 25° C. with 2 M HCl containing 1 mM MgCl2, 10 mM KCl. The cells were homogenized using a Polytron homogenizer (at the maximum power for 20 seconds) and centrifuged at 48,000 g for 20 minutes at 4° C. The pellet was resuspended, homogenized and centrifuged once more in the same manner. The resultant supernatant was discarded and the final pellet was resuspended (10-fold volume of 50 mM Tris buffer) and homogenized at the maximum power for 20 seconds. The membrane homogenate was aliquoted and stored at −80° C. until use. An aliquot was used for protein concentration determination using a Protein Assay Rapid Kit and ARVO SX plate reader (Wallac). […] Saturation was determined by incubating 20 μl of [^3H]-dofetilide and 160 μl of membrane homogenates (20-30 μg protein per well) for 60 min at room temperature in the absence or presence of 10 μM dofetilide at final concentrations (20 μl) for total or nonspecific binding, respectively. […] Receptor-bound radioactivity was quantified by liquid scintillation counting using Packard LS counter.
For the competition assay, compounds were diluted in 96 well polypropylene plates as 4-point dilutions in semi-log format. […] Receptor-bound radioactivity was quantified by counting Wallac MicroBeta plate counter. […]

T2 sequence (Q12809 whole entry): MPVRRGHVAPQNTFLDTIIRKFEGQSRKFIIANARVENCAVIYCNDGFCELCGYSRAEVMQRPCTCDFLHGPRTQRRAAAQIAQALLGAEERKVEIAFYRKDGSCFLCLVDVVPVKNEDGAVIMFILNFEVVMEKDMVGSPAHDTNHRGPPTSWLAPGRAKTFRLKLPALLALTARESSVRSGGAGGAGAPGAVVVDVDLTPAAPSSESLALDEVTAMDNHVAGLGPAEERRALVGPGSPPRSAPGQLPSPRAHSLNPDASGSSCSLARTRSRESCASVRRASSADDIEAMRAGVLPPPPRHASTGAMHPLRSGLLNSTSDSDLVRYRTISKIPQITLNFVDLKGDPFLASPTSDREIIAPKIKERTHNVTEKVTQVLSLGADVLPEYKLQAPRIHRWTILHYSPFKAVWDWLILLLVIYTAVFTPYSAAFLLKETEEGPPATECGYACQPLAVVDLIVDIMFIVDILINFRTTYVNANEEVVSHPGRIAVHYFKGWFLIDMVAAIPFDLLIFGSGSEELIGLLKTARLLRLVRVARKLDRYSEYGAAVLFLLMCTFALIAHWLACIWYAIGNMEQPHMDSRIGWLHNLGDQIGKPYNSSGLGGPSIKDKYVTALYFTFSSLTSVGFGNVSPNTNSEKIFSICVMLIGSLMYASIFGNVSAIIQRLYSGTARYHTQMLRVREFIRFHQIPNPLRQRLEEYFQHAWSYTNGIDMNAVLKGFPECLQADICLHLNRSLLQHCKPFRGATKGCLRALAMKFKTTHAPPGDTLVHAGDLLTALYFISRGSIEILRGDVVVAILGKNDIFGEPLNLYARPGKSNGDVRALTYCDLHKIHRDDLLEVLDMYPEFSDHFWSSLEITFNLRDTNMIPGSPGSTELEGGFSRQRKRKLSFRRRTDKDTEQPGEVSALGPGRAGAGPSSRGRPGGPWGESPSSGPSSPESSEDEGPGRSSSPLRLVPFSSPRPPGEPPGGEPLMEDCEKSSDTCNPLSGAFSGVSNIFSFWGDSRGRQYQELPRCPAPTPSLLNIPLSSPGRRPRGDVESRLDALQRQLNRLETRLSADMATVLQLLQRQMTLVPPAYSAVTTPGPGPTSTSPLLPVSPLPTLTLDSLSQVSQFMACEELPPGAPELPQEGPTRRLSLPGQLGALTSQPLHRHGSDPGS

Take `CN(C)C(=O)C(CN1C2CCC1CC1(C2)OCCc2cc(F)ccc21)Cn1cccn1` (stereo not drawn) [Example 11, 3-(6′-FLUORO-3′,4′-DIHYDRO-8H-SPIRO[8-AZABICYCLO[3.2.1]OCTANE-3,1′-ISOCHROMEN]-8-YL)—N,N-DIMETHYL-2-(1H-PYRAZOL-1-YLMETHYL)P[…], CITRATE]: the Ki (usually the dissociation constant of the complex between target and ligand, obtained from inhibition or displacement) at human ORL1 receptor (read-out: Ki) came out at 1.3 nM. On the same count and under the same terms, the result for `CN(C)C(=O)C(Cc1cscn1)CN1C2CCC1CC1(C2)OCc2ccc(F)cc21` (stereo not drawn) [Example 9, 3-(6′-FLUORO-3′H,8H-SPIRO[8-AZABICYCLO[3.2.1]OCTANE-3,1′-[2]BENZOFURAN]-8-YL)-N,N-DIMETHYL-2-(1,3-THIAZOL-4-YLMETHYL) P[…]] reads 3.8 nM. On the same count and under the same terms, the result for `CN(C)C(=O)C(CN1C2CCC1CC1(C2)OCc2ccc(F)cc21)Cn1cccn1` (stereo not drawn) [Example 5, 3-(6′-FLUORO-3′H,8H-SPIRO[8-AZABICYCLO[3.2.1]OCTANE-3,1′-[2]BENZOFURAN]-8-YL)-N,N-DIMETHYL-2-(1H-PYRAZOL-1-YLMETHYL)P[…], CITRATE] reads 3.6 nM. For `CN(C)C(=O)C(CN1C2CCC1CC1(C2)OCc2ccccc21)Cn1cccn1` (single isomer, unassigned; (+)) [Example 3, (+)-N,N-DIMETHYL-3-(1H-PYRAZOL-1-YL)-2-(3′H,8H-SPIRO[8-AZABICYCLO[3.2.1]OCTANE-3,1′-[2]BENZOFURAN]-8-YLMETHYL)P[…], CITRATE], at human ORL1 receptor (read-out: Ki), the Ki came out at 2 nM. Same read-out and setting: then `CN(C)C(=O)C(CN1C2CCC1CC1(C2)OCCc2cc(F)ccc21)Cn1cccn1` (single isomer, unassigned; (+)) [Example 12, (+)-3-(6′-FLUORO-3′,4′-DIHYDRO-8H-SPIRO[8-AZABICYCLO[3.2.1]OCTANE-3,1′-ISOCHROMEN]-8-YL)-N,N-DIMETHYL-2-(1H-PYRAZOL-1-YLMETHYL)P[…], CITRATE], with 140 nM. Same read-out and setting: the result for `CN(C)C(=O)C(CN1C2CCC1CC1(C2)OCCc2cc(F)ccc21)Cn1cccn1` (single isomer, unassigned; (-)) [Example 13, (−)-3-(6′-FLUORO-3′,4′-DIHYDRO-8H-SPIRO[8-AZABICYCLO[3.2.1]OCTANE-3,1′-ISOCHROMEN]-8-YL)-N,N-DIMETHYL-2-(1H-PYRAZOL-1-YLMETHYL)PROPANAMIDE] reads 1 nM; that for `CN(C)C(=O)C(CN1C2CCC1CC1(C2)OCc2ccc(F)cc21)Cn1cccn1` (single isomer, unassigned) [Example 8, 3-(6′-FLUORO-3′H,8H-SPIRO[8-AZABICYCLO[3.2.1]OCTANE-3,1′-[2]BENZOFURAN]-8-YL)-N,N-DIMETHYL-2-(1H-PYRAZOL-1-YLMETHYL)P[…], CITRATE], 2.6 nM. Compound `CN(C)C(=O)C(Cc1cscn1)CN1C2CCC1CC1(C2)OCc2ccccc21` (stereo not drawn) [Example 1, N,N-DIMETHYL-3-(3′H,8H-SPIRO[8-AZABICYCLO[3.2.1]OCTANE-3,1′-[2]BENZOFURAN]-8-YL)-2-(1,3-THIAZOL-4-YLMETHYL)P[…], CITRATE] displayed an inhibition constant Ki at human ORL1 receptor (Ki) of 1.8 nM. Turning to `CN(C)C(=O)C(CN1C2CCC1CC1(C2)OCc2ccc(F)cc21)Cn1cccn1` (single isomer, unassigned; (-)) [Example 7, (−)-3-(6′-FLUORO-3′H,8H-SPIRO[8-AZABICYCLOr3.2.1]OCTANE-3,1′-[2]BENZOFURAN]-8-YL)-N,N-DIMETHYL-2-(1H-PYRAZOL-1-YLMETHYL)PROPANAMIDE], the Ki on human ORL1 receptor (read-out: Ki) amounted to 3.6 nM. With `CN1C(=O)C(CN2CCC3(CCc4ccccc43)CC2)Cc2ccccc21` (stereo not drawn) [Compound (I)], the “activity in the dofetilide binding assay” value on HERG is reported as “potent activity”. Regarding `CN(C)C(=O)C(CN1C2CCC1CC1(C2)OCCc2ccccc21)Cn1cccn1` (stereo not drawn) [Example 10, 3-(3′,4′-DIHYDRO-8H-SPIRO[8-AZABICYCLO[3.2.1]OCTANE-3,1′-ISOCHROMEN]-8-YL)-N,N-DIMETHYL-2-(1H-PYRAZOL-1-YLMETHYL)P[…], CITRATE], the Ki at human ORL1 receptor (read-out: Ki) is 7.2 nM. Still for that read-out and setting: the result for `CN(C)C(=O)C(CN1C2CCC1CC1(C2)OCc2ccccc21)Cn1cccn1` (stereo not drawn) [Example 2, N,N-DIMETHYL-3-(1H-PYRAZOL-1-YL)-2-(3′H,8H-SPIRO[8-AZABICYCLO[3.2.1]OCTANE-3,1′-[2]BENZOFURAN]-8-YLMETHYL)P[…], CITRATE] reads 2.4 nM.
